Test results as given in ChEMBL document CHEMBL3992485 (Medchemcomm, 2016).
Calls of active or inactive are those of the source. No cut-off for these calls is given here.

Tests used:
[1] = Inhibition of tubulin polymerization in bovine brain assessed as reduction in tubulin assembly after 20 mins by spectrophotometric method; parameters: species or system Bos taurus
HepG2 = assay: Antiproliferative activity against human HepG2 cells measured after 24 hrs by MTT assay; type: functional, cell-based; details: HepG2, 24 h
[2] = Antiproliferative activity against human 293T cells measured after 24 hrs by MTT assay; type: cell-based; details: 293T (HEK-293T) cells
HeLa [3] = assay: Antiproliferative activity against human HeLa cells measured after 24 hrs by MTT assay; type: functional, cell-based
MCF7 = assay: Antiproliferative activity against human MCF7 cells measured after 24 hrs by MTT assay; type: functional, cell-based; details: MCF7, 24 h
A549 = assay: Antiproliferative activity against human A549 cells measured after 24 hrs by MTT assay; type: functional, cell-based; details: A549, 24 h
HeLa [4] = assay: Inhibition of microtubule polymerization in human HeLa cells at 0.2 uM after 24 hrs by DAPI staining based confocal microscopic analysis; type: cell-based

Row | Compound | IC50 [1] [µM] | IC50 (HepG2) [µM] | CC50 at 24 h [2] [µM] | IC50 (HeLa [3]) [µM] | IC50 (MCF7) [µM] | IC50 (A549) [µM] | inhibition (HeLa [4])
1 | CCn1cc(C(=O)N2CCN(S(=O)(=O)c3ccccc3)CC2)c2ccccc21 | 3.75 | 14.8 | 366 | 15.8 | 22.7 | > 100 | –
2 | CCCn1cc(C(=O)N2CCN(S(=O)(=O)c3ccc(C)cc3)CC2)c2ccccc21 | 3.15 | 24.9 | 357 | 10.7 | 16.8 | 14.7 | –
3 | CC(C)c1cc(C(C)C)c(S(=O)(=O)N2CCN(C(=O)c3cn(Cc4ccccc4)c4ccccc34)CC2)c(C(C)C)c1 | 3.64 | 17.6 | 295 | 18.3 | 14.1 | 10.7 | –
4 | Cc1ccc(S(=O)(=O)N2CCN(C(=O)c3cn(C)c4ccccc34)CC2)cc1 | 2.15 | 1.83 | 353 | 3.65 | 6.53 | 7.43 | –
5 | CCn1cc(C(=O)N2CCN(S(=O)(=O)c3ccc(Br)cc3)CC2)c2ccccc21 | 4.87 | 26.6 | 354 | 32.9 | 27.6 | 48.4 | –
6 | Cn1cc(C(=O)N2CCN(S(=O)(=O)c3ccccc3)CC2)c2ccccc21 | 2.76 | 4.54 | 314 | 7.76 | 9.43 | 15.5 | –
7 | CC(=O)O[C@H]1C(=O)[C@@]2(C)[C@H]([C@H](OC(=O)c3ccccc3)[C@]3(O)C[C@H](OC(=O)[C@H](O)[C@@H](NC(=O)c4ccccc4)c4ccccc4)C(C)=C1C3(C)C)[C@]1(OC(C)=O)CO[C@@H]1C[C@@H]2O | – | – | – | – | – | – | inactive
8 | CCCn1cc(C(=O)N2CCN(S(=O)(=O)c3ccc(Br)cc3)CC2)c2ccccc21 | 27.5 | 44.9 | 463 | 27.5 | 64.8 | 39.8 | –
9 | CCCn1cc(C(=O)N2CCN(S(=O)(=O)c3ccc(Cl)cc3)CC2)c2ccccc21 | 45.4 | 50.6 | 537 | > 100 | > 100 | > 100 | –
10 | O=C(c1cn(Cc2ccccc2)c2ccccc12)N1CCN(S(=O)(=O)c2ccccc2)CC1 | 5.64 | 27.9 | 262 | 21.1 | 35.6 | 22.4 | –
11 | O=C(c1cn(Cc2ccccc2)c2ccccc12)N1CCN(S(=O)(=O)c2ccc(Br)cc2)CC1 | 6.74 | 38.6 | 326 | 35.6 | 37.8 | > 100 | –
12 | CCCn1cc(C(=O)N2CCN(S(=O)(=O)c3ccc([N+](=O)[O-])cc3)CC2)c2ccccc21 | 44.8 | > 100 | 464 | > 100 | > 100 | > 100 | –
13 | CCn1cc(C(=O)N2CCN(S(=O)(=O)c3ccc(C)cc3)CC2)c2ccccc21 | 3.75 | 7.45 | 298 | 12.8 | 24.6 | 24.7 | –
14 | Cc1ccc(S(=O)(=O)N2CCN(C(=O)c3cn(Cc4ccccc4)c4ccccc34)CC2)cc1 | 3.02 | 33.2 | 321 | 10 | 18.7 | 17 | –
15 | CCn1cc(C(=O)N2CCN(S(=O)(=O)c3ccc([N+](=O)[O-])cc3)CC2)c2ccccc21 | 5.52 | 69.3 | 436 | 48 | 50.9 | 63.5 | –
16 | COc1cc2c(c(OC)c1OC)-c1ccc(OC)c(=O)cc1[C@@H](NC(C)=O)CC2 [COLCHICINE] | – | 0.64 | 152 | 0.45 | 0.54 | 0.47 | Active
17 | CC(C)c1cc(C(C)C)c(S(=O)(=O)N2CCN(C(=O)c3cn(C)c4ccccc34)CC2)c(C(C)C)c1 | 1.97 | 0.45 | 383 | 0.37 | 0.63 | 0.94 | –
18 | O=C(c1cn(Cc2ccccc2)c2ccccc12)N1CCN(S(=O)(=O)c2ccc([N+](=O)[O-])cc2)CC1 | 6.84 | > 100 | 347 | 42.9 | 50.6 | > 100 | –
19 | Cn1cc(C(=O)N2CCN(S(=O)(=O)c3ccc([N+](=O)[O-])cc3)CC2)c2ccccc21 | 3.56 | 28 | 374 | 15.6 | 32.6 | 44.6 | –
20 | CCCn1cc(C(=O)N2CCN(S(=O)(=O)c3c(C(C)C)cc(C(C)C)cc3C(C)C)CC2)c2ccccc21 | 2.87 | 16.8 | 311 | 14.9 | 11.6 | 17.5 | –
21 | Cn1cc(C(=O)N2CCN(S(=O)(=O)c3ccc(Cl)cc3)CC2)c2ccccc21 | 3.34 | 16.3 | 257 | 11.7 | 29.5 | 25.3 | –
22 | CCCn1cc(C(=O)N2CCN(S(=O)(=O)c3ccccc3)CC2)c2ccccc21 | 48.9 | 29.7 | 485 | > 100 | 23.6 | 23.6 | –
23 | CCn1cc(C(=O)N2CCN(S(=O)(=O)c3ccc(Cl)cc3)CC2)c2ccccc21 | 44.9 | 36.8 | 275 | > 100 | 46.6 | > 100 | –
24 | O=C(c1cn(Cc2ccccc2)c2ccccc12)N1CCN(S(=O)(=O)c2ccc(Cl)cc2)CC1 | 6.01 | > 100 | 472 | > 100 | 46.6 | 54.8 | –
25 | Cn1cc(C(=O)N2CCN(S(=O)(=O)c3ccc(Br)cc3)CC2)c2ccccc21 | 3.96 | 5.79 | 295 | 9.86 | 17.3 | 6.49 | –
